We go through 7 molecules from patent publication US20020022718A1, “Genes identified as required for proliferation of E. coli” (priority 1999, published 2002).

The test system of data set [1] is Bacterial cells expressing antisense nucleic acid complementary to rplL and rplJ (50S ribosomal subunit proteins). The experiment in a line: microbe, parasite or virus in culture. The format is cell-based, E. coli. The settings on record: for IC50: Escherichia coli. The protocol:
Two-fold dilution series of antibiotics with a known mechanism of action are generated in the culture media selected for further assay development that has been supplemented with the antibiotic used to maintain the construct. A panel of test antibiotics known to act on different pathways is tested side by side with three to four wells being used to evaluate the effect of a test antibiotic on cell growth at each concentration. Equal volumes of test antibiotic and cells are added to the wells of a 384 well microtiter plate and mixed. Cells are prepared as described above using the media selected for assay development supplemented with the antibiotic required to maintain the antisense construct and are diluted 1:100 in identical media immediately prior to addition to the microtiter plate wells. For a control, cells are also added to several wells that contain the solvent used to dissolve the antibiotics but no antibiotic. Cell growth is monitored continuously by incubation at 37° C. in a microtiter plate reader monitoring the OD600 of the wells over an 18-hour period. […] A plot of percent inhibition against log[antibiotic concentration] allows extrapolation of an IC50 value for each antibiotic.
The culture media selected for use in the assay is supplemented with inducer at concentrations shown to inhibit cell growth by 50% and 80% as described above and the antibiotic used to maintain the construct. Two fold dilution series of the panel of test antibiotics used above are generated in each of these media. Several antibiotics are tested side by side with three to four wells being used to evaluate the effects of an antibiotic on cell growth at each concentration, in each media. Equal volumes of test antibiotic and cells are added to the wells of a 384 well microtiter plate and mixed. Cells are prepared as described above using the media selected for use in the assay supplemented with the antibiotic required to maintain the antisense construct. […] Immediately prior to addition to the microtiter plate wells, the cultures are adjusted to an appropriate OD600 (typically 0.002) by dilution into warm (37° C.) sterile media supplemented with identical concentrations of the inducer and antibiotic used to maintain the antisense construct. For a control, cells are also added to several wells that contain solvent used to dissolve test antibiotics but which contain no antibiotic. Cell growth is monitored continuously by incubation at 37° C. in a microtiter plate reader monitoring the OD600 of the wells over an 18-hour period. […] A plot of percent inhibition against log[antibiotic concentration] allows extrapolation of an IC50 value for each antibiotic.
Antibiotics of various chemical classes and modes of action were purchased from Sigma Chemicals (St. Louis, Mo.). Stock solutions were prepared by dissolving each antibiotic in an appropriate aqueous solution based on information provided by the manufacturer. The final working solution of each antibiotic contained no more than 0.2% (w/v) of any organic solvent. To determine their potency against a bacterial strain engineered for expression of an antisense complementary to a proliferation-required gene encoding 50S ribosomal protein, each antibiotic was serially diluted two or three fold in growth medium supplemented with the appropriate antibiotic for maintenance of the anti-sense construct. At least ten dilutions were prepared for each antibiotic. 25 μL aliquots of each dilution were transferred to discrete wells of a 384-well microplate (the assay plate) using a multi-channel pipette. Quadruplicate wells were used for each dilution of an antibiotic under each treatment condition (plus and minus inducer). Each assay plate contained twenty wells for cell growth controls (growth media replacing antibiotic), ten wells for each treatment (plus and minus inducer, in this example IPTG).

The subject of data set [2] is E. coli transformed with IPTG-inducible antisense clones (AS-rplW, AS-rplLrplJ, AS-elaD, AS-visC, AS-yohH, AS-atpB/E). The experiment in a line: Cell-based assay: antibiotic sensitivity of E. coli antisense clones pretreated with IPTG (Example 9). The following applies: initial experiments. The source says: The effectiveness of the above cell-based assay was validated using constructs expressing antisense RNA to the proliferation required E. coli genes rplL, rplJ, and rplW encoding ribosomal proteins L7/L12, L10 and L23 respectively. These proteins are part of the protein synthesis apparatus of the cell and as such are required for proliferation. These constructs were used to test the effect of antisense expression on cell sensitivity to antibiotics known to bind to the ribosome and thereby inhibit protein synthesis. Constructs expressing antisense RNA to several other genes (elaD, visC, yohH, and atpE/B), the products of which are not involved in protein synthesis were used for comparison.
First, pLEX5BA (Krause et al., J. Mol. Biol. 274: 365 (1997), the disclosure of which is incorporated herein by reference in its entirety) expression vectors containing antisense constructs to either rplW or to elaD were introduced into separate E. coli cell populations. Vector introduction is a technique well known to those of ordinary skill in the art. The expression vectors of this example contain IPTG inducible promoters that drive the expression of the antisense RNA in the presence of the inducer. However, those skilled in the art will appreciate that other inducible promoters may also be used. Suitable expression vectors are also well known in the art. The E. coli antisense clones to genes encoding ribosomal proteins L7/L12, L10 and L23 were used to test the effect of antisense expression on cell sensitivity to the antibiotics known to bind to these proteins. […]
The cell populations were exposed to a range of IPTG concentrations in liquid medium to obtain the growth inhibitory dose curve for each clone (FIG. 1). First, seed cultures were grown to a particular turbidity that is measured by the optical density (OD) of the growth solution. […] The cells were grown for up to 15 hours and the extent of growth was determined by measuring the optical density of the cultures at 600 nm. […]

A further data set has as its system Klebsiella pneumoniae. The experiment in a line: Growth inhibition by induced E. coli antisense RNA in Klebsiella pneumoniae. The format is cell-based. Set-up: key: +: a positive in Table V below means that at least 10 fold more cells were required to observe a colony on the induced plate than on the non-induced plate; −: If there was no effect of antisense RNA expression in a microorganism, the clone is minus in Table V below. The following applies: antisense RNA expression induced with IPTG, serial dilution plating. In outline:
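An E. coli antisense fragment (b3052 portion), or other E. coli-inhibitory antisense clones, was expressed in each species on IPTG induction (1 mM). Serial 10-fold dilutions were spotted on selective agar with or without IPTG overnight. The score is the log difference in maximal colony-forming dilution, induced vs uninduced (0 = no effect; positive = at least 10-fold).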

≈ marks a conversion by molar mass, not a printed value. Read-outs that look alike come from different tables or passages of the source.

Take `CC[C@H]1OC(=O)[C@H](C)[C@@H](O[C@H]2C[C@@](C)(OC)[C@@H](O)[C@H](C)O2)[C@H](C)[C@@H](O[C@@H]2O[C@H](C)C[C@H](N(C)C)[C@H]2O)[C@](C)(O)C[C@@H](C)C(=O)[C@H](C)[C@@H](O)[C@]1(C)O` [Erythromycin]: the IC50 (commonly the concentration that inhibits the measured activity by half) in data set [1] (read-out: IC50 (+IPTG)) was determined as 0.187 µg/mL (≈ 0.255 µM); in data set [1] (read-out: IC50 (−IPTG)), 7.47 µg/mL (≈ 10.2 µM). Further, the “Fold Increase in Sensitivity” value in data set [1] (IC50 −IPTG versus +IPTG (400 μM)) stood at 40. The “Sensitivity Increased?” value in data set [1] (significant decrease in IC50 in the presence of inducer IPTG) was “Yes”. Further, the sensitivity to antibiotic result in data set [2] (clones with antisense to non-protein synthesis genes elaD, atpB/E and visC) is given as “do not”; in data set [2] (clones with antisense to protein synthesis genes (L7/L12 & L10, L7/L12 alone, L22, L18, rRNA, Elongation Factor G)), “increased sensitivity”.

B1: EcXA187: antisense clone insert to E. coli b2271 (nucleic acid, listed as Escherichia coli)
antisense: TNNCANNNNCNNNNNNNNNNNNNNNNCNCNNTNCCTAGANTNTCNANGTCTNCNCNCNCNTNNCCNNNCCCTTCNNNNCCNNNNANANGNNCNNCNCCCCCNNNCCCNNTTTTGTTTTGGAAANTCCGTTTCAGGAANAGCTTCTGAATCCCGANCGNTTGATAACTGNNGGCCAGAGTCATAATGCGCACCAATAATAATCAGCGGNCCATCGGCAGGACCATAATCAGCAACAATGNNNNGGTAGGGGCCACCCGTAATGGGGACCGTCCTGCGAGGTAACTCTGGCACCGCTACTGACAAAGACCTCTTTTATATATTCTGCGGGACCTATTCAGATTATCAATATTGTCNGGCACTACGTGGATGCACAAGTTTGTGTAAGATAACGAACTGNTTTTTCTAATTGCTCAGGACTTTGCGTGTCGGGGCCGTTGACGGTAATGCATTGACCCAGGGTTGGTAAAAAATAATCATAGGGAGTAAAAACACAAATAATATAATAAAAGCCAAGATTATTTTTTTCATATGCAAAATTATTAATGGGGTTGCGTTTGGTGAATCATTATNTTGCTATGGGTTTCGATATTGNGATTTTAATTAAAGATTAAGCANGGGATTATACCAAAAGA
modifications: misc_feature (1)...(632): n = A,T,C or G
notes: antisense clone insert to E. coli b2271
On to B1, for which, in the data set on Klebsiella pneumoniae, the “Sensitivity of K. pneumoniae to antisense nucleic acid (growth inhibition, induced vs. uninduced)” value is “+ (a positive in Table V below means that at least 10 fold more cells were required to observe a colony on the induced plate than on the non-induced plate)”.

B2: EcXA185: antisense clone insert to E. coli rpsK (nucleic acid, listed as Escherichia coli)
antisense: CCCTGACGATCAGTGATAGTCACGATGGTGTTGTTGAAAGAAGCATGGATATGAGCCACGCCGTCAG
For B2, the “Sensitivity of K. pneumoniae to antisense nucleic acid (growth inhibition, induced vs. uninduced)” value in the data set on Klebsiella pneumoniae is recorded as “−”.

B3: EcXA183: antisense clone insert to E. coli ftsI (nucleic acid, listed as Escherichia coli)
antisense: GTTAGTAAAGCCGATGAGGTGAGCAGTCACTTCGCCGGACGGATAGTAACGGCGAGACTCTTCACGCAGATGAATCCCCGGCAGTTTCAGTTTTTTGATGTAGTCCGCCATGTCAGGGTTCACCTGACGCGCCAGATAAATAAAGCGCCCTTTCGGGTTGGCGTTAATGCGGGCTGAAAGCTGATCCAG
Take B3: in the data set with Klebsiella pneumoniae, the “Sensitivity of K. pneumoniae to antisense nucleic acid (growth inhibition, induced vs. uninduced)” value is “−”.

B4: EcXA184: antisense clone insert to E. coli cysC (nucleic acid, listed as Escherichia coli)
antisense: GCAGTTCACCGGCACGCGCTTTCTTATATAAGCCTTTGGGATCGCGGGCTTCGCAAATCGCCAGCGGCGTATCGACAAACACTTCGATAAAGCGCCCTTCTCCTACGCGTTCGCGAACCATCTGGCGTTCGGCGCGGTGTGGCGAGATAAATGCGGTCAGCACCACCAGTCCGGCTTCAACCATCAAATTCGCCACTTCACCGACGCGACGGATATTCTCTTTACGATCGGCATCGCTAAAACCGAGATCGCTGCATAATCCGTGGCGAACATTGTCGCCATCCAGCAGATACGTACTGACGCCGAGTTTATGTAACGCCTCCTCCAGCGCCCCGGCGACCGTTGAT
Regarding B4, the “Sensitivity of K. pneumoniae to antisense nucleic acid (growth inhibition, induced vs. uninduced)” value in the data set on Klebsiella pneumoniae is reported as “−”.

B5: EcXA192: antisense clone insert to E. coli rbsC, rpsB (nucleic acid, listed as Escherichia coli)
antisense: AGCGCAACAGCGGAAACCAGGGTAGCCAGTTTTTTCATGTTCATATTCAAGATGTCCTGTAGTCGTTATTACTGCTTTTTGTTGTCTACCAGCACCGCCAGCAAAATCACCACCGCTTTGACGATCATCTGGTAATAGGAGGAAACACCTAACAAATTCAATCCATTATTAAGGAAGCCAAGAATTAATGCGCCGATCAACGTCCCAACAATGCGACCTTT
Take B5: the “Sensitivity of K. pneumoniae to antisense nucleic acid (growth inhibition, induced vs. uninduced)” value in the data set on Klebsiella pneumoniae is given as “−”.

B6: EcXA186: antisense clone insert to E. coli yagG (nucleic acid, listed as Escherichia coli)
antisense: AGCAAAGCGAGCCGAACATGGTGGCGAGGCTGCCGTAAAGTAAAAACTGGGTCGCCAACTCCGGGTGATCCATCACGTATTTCACGAAGTAGAGCGTCGCCCCGCCGCGCACCACGTTGGAGCAGGTCGCCATCATCTTGAACGCGCACATGATGCGCCACTGGCTGTTGCCCAGC
B6: the “Sensitivity of K. pneumoniae to antisense nucleic acid (growth inhibition, induced vs. uninduced)” value in the data set on Klebsiella pneumoniae was “−”.
